US20210115040A1, “OGA INHIBITOR COMPOUNDS” (Janssen Pharmaceutica NV, priority 2018, published 2021)

Target: T1, recombinant human Meningioma Expressed Antigen 5 (MGEA5), also referred to as O-GlcNAcase (OGA) (Homo sapiens, UniProt O60502)
T1 construct: Full length OGA enzyme was purchased at OriGene (cat #TP322411); purchased OriGene TP322411
T1 sequence (O60502 1-916): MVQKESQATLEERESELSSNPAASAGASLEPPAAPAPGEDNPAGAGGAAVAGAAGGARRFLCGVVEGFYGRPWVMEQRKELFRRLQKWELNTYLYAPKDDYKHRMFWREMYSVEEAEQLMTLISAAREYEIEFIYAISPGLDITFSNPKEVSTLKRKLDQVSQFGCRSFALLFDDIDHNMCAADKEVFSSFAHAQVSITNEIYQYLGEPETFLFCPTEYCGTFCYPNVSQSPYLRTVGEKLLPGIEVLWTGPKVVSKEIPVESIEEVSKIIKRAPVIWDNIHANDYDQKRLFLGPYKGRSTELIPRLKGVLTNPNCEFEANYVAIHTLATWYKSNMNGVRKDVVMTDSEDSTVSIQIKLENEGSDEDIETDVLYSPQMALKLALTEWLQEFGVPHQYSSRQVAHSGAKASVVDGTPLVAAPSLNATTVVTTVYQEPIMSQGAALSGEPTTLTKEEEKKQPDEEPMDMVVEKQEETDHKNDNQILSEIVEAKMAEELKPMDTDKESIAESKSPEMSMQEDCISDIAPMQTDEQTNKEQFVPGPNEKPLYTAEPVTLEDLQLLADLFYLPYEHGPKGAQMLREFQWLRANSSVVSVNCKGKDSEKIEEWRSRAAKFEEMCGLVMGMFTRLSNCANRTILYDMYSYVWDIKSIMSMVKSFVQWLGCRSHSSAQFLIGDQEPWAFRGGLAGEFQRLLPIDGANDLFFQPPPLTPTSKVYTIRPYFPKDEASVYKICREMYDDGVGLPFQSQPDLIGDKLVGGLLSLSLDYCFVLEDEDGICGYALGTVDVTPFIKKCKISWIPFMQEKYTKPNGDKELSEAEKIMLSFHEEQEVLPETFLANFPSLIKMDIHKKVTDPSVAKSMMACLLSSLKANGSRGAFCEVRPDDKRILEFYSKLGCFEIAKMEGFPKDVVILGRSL
Test: OGA biochemical assay (inhibition of FM-GlcNAc hydrolysis, fluorescence)
Settings: FM-GlcNAc substrate
Outline: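 Full-length OGA (2 nM) pre-incubated 60 min at room temperature with compound, then FM-GlcNAc (100 uM final) hydrolysed 6 h at room temperature in 200 mM citrate/phosphate pH 7.2 with 0.005% Tween-20. Stopped with carbonate pH 11.0; fluorescein read at ex 485/em 538 nm. IC50 and Hill coefficient from curve fit between no-inhibitor and saturating-standard controls.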

IC50 (6 h at room temperature, read-out: Enzymatic hOGA, pIC50 (converted)): 12.6 nM | Emax (maximal effect, read-out: Enzymatic Emax (%)): 99%
Compound: Cc1cc(C2CCCN(C(C)c3ccc4sc(C)nc4n3)C2)cc(C)n1 (racemic) [Compound 39]
